Values after ≈ are worked out from the molar mass of the structure shown.
Test system: Saccharomyces cerevisiae
Test: Antifungal activity against Saccharomyces cerevisiae (strain YPH98)
Format: functional, organism-based

Row | SMILES | IC50 [ng/mL]
1 | CC(C)C1=CC2C[C@]3(C=O)C4CCC(C)C4C[C@]2(CO)[C@]13C(=O)O (stereo partly specified) [SORDARICIN] | > 250000
2 | CCCOC[C@]12CC3C(C)CCC3[C@@]3(C=O)CC1C=C(C(C)C)[C@@]23C(=O)O (stereo partly specified) | 60 (≈ 160 nM)
3 | CCCCCCCCOC[C@]12CC3C(C)CCC3[C@@]3(C#N)CC1C=C(C(C)C)[C@@]23C(=O)O (stereo partly specified) | 200 (≈ 453 nM)
4 | CCCCCCCCCOC[C@]12CC3C(C)CCC3[C@@]3(C#N)CC1C=C(C(C)C)[C@@]23C(=O)O (stereo partly specified) | 1000 (≈ 2190 nM)
5 | COC[C@]12CC3C(C)CCC3[C@@]3(C=O)CC1C=C(C(C)C)[C@@]23C(=O)O (stereo partly specified) | 100 (≈ 289 nM)
6 | CC(C)CCOC[C@]12CC3C(C)CCC3[C@@]3(C#N)CC1C=C(C(C)C)[C@@]23C(=O)O (stereo partly specified) | 0.01 (≈ 0.025 nM)
7 | CCCCCOC[C@]12CC3C(C)CCC3[C@@]3(C=O)CC1C=C(C(C)C)[C@@]23C(=O)O (stereo partly specified) | 0.01 (≈ 0.0248 nM)
8 | CCCOC[C@]12CC3C(C)CCC3[C@@]3(C#N)CC1C=C(C(C)C)[C@@]23C(=O)O (stereo partly specified) | 90 (≈ 242 nM)
9 | CC(C)COC[C@]12CC3C(C)CCC3[C@@]3(C#N)CC1C=C(C(C)C)[C@@]23C(=O)O (stereo partly specified) | 30 (≈ 77.8 nM)
10 | COC[C@]12CC3C(C)CCC3[C@@]3(C#N)CC1C=C(C(C)C)[C@@]23C(=O)O (stereo partly specified) | 1000 (≈ 2910 nM)
11 | CC(C)CCOC[C@]12CC3C(C)CCC3[C@@]3(C=O)CC1C=C(C(C)C)[C@@]23C(=O)O (stereo partly specified) | 0.01 (≈ 0.0248 nM)

Other lines, results leading:

Row | IC50 [ng/mL] | SMILES
12 | 0.3 (≈ 0.725 nM) | CCCCCCOC[C@]12CC3C(C)CCC3[C@@]3(C#N)CC1C=C(C(C)C)[C@@]23C(=O)O (stereo partly specified)
13 | 15 (≈ 36 nM) | CCCCCCOC[C@]12CC3C(C)CCC3[C@@]3(C=O)CC1C=C(C(C)C)[C@@]23C(=O)O (stereo partly specified)
14 | 20000 (≈ 60700 nM) | CC(C)C1=CC2C[C@]3(C#N)C4CCC(C)C4C[C@]2(CO)[C@]13C(=O)O (stereo partly specified)
15 | 10000 (≈ 20300 nM) | CO[C@H]1[C@@H](O)[C@H](O)[C@H](OC[C@@]23C[C@@H]4[C@H](C)CC[C@H]4[C@@]4(C=O)CC2C=C(C(C)C)[C@@]34C(=O)O)O[C@@H]1C [SORDARIN]
16 | 300 (≈ 697 nM) | CCCCCCCOC[C@]12CC3C(C)CCC3[C@@]3(C=O)CC1C=C(C(C)C)[C@@]23C(=O)O (stereo partly specified)
17 | 50000 (≈ 109000 nM) | CCCCCCCCCOC[C@]12CC3C(C)CCC3[C@@]3(C=O)CC1C=C(C(C)C)[C@@]23C(=O)O (stereo partly specified)
18 | 2000 (≈ 4080 nM) | COC1C(C)OC(OCC23CC4C(C)CCC4[C@@]4(C#N)C[C@@H]2C=C(C(C)C)[C@@]34C(=O)O)C(O)C1O (stereo partly specified)
19 | 60 (≈ 166 nM) | CCOC[C@]12CC3C(C)CCC3[C@@]3(C=O)CC1C=C(C(C)C)[C@@]23C(=O)O (stereo partly specified)
20 | 30 (≈ 77.8 nM) | CCCCOC[C@]12CC3C(C)CCC3[C@@]3(C#N)CC1C=C(C(C)C)[C@@]23C(=O)O (stereo partly specified)
21 | 500 (≈ 1400 nM) | CCOC[C@]12CC3C(C)CCC3[C@@]3(C#N)CC1C=C(C(C)C)[C@@]23C(=O)O (stereo partly specified)
22 | 100 (≈ 234 nM) | CCCCCCCOC[C@]12CC3C(C)CCC3[C@@]3(C#N)CC1C=C(C(C)C)[C@@]23C(=O)O (stereo partly specified)
23 | 400 (≈ 900 nM) | CCCCCCCCOC[C@]12CC3C(C)CCC3[C@@]3(C=O)CC1C=C(C(C)C)[C@@]23C(=O)O (stereo partly specified)
24 | 0.1 (≈ 0.257 nM) | CCCCOC[C@]12CC3C(C)CCC3[C@@]3(C=O)CC1C=C(C(C)C)[C@@]23C(=O)O (stereo partly specified)
25 | 0.1 (≈ 0.257 nM) | CC(C)COC[C@]12CC3C(C)CCC3[C@@]3(C=O)CC1C=C(C(C)C)[C@@]23C(=O)O (stereo partly specified)
26 | 0.01 (≈ 0.025 nM) | CCCCCOC[C@]12CC3C(C)CCC3[C@@]3(C#N)CC1C=C(C(C)C)[C@@]23C(=O)O (stereo partly specified)

Reference: ChEMBL document CHEMBL1130939, “Alkyl side-chain derivatives of sordaricin as potent antifungal agents against yeast” (Bioorg Med Chem Lett, 1998)
